In patent publication US20260258036A1, “INHIBITORS OF HUMAN ALDOSTERONE SYNTHASE (CYP11B2)” («TARGET MEDICALS» LIMITED LIABILITY COMPANY, priority 2022, published 2026) one finds inhibition data, which are given here for 26 molecules.

The test deals with T1, recombinant CYP11B2 (Homo sapiens, UniProt P19099).
T1 sequence (P19099 25-503): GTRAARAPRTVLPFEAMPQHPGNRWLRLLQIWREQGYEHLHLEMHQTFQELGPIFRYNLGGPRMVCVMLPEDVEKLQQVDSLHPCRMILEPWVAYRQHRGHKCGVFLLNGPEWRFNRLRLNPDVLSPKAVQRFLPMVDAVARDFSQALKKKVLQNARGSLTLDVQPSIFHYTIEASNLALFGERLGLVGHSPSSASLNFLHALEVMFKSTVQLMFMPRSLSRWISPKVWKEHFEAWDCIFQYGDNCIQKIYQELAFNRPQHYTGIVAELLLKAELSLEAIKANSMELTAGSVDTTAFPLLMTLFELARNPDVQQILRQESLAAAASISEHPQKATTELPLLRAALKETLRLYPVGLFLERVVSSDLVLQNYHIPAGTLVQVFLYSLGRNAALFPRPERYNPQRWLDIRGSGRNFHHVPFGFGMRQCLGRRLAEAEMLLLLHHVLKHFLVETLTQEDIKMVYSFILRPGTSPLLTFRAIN
The test is described as follows: Inhibition of CYP11B2 activity in a reconstructed enzyme system (HPLC with UV detector). The test is classed as biochemical. Conditions: compounds 1_xx; test compound final concentration ≤2 μM; corticosterone substrate; 30 minutes at 37° C.; read-out: Level of CYP11B2 activity inhibition. On the procedure:
The authors of the present invention investigated the activity of the compounds according to the invention as inhibitors of CYP11 B2 when analyzed in a reconstructed system containing 0.5 μm recombinant CYP1 1B2, 0.3 μm human adrenodoxin reductase, 2 μm human adrenodoxin, 100 μm corticosterone as a control reaction to detect the formation of a product with using an HPLC system with a UV detector. The test compound is added to the reaction mixture to a final concentration of ≤2 μM. The concentrated protein mixture was diluted with buffer to a final volume of 0.5 ml, pre-incubated for 10 min at 37° C., followed by the addition of the substrate. Reactions are initiated by adding NADPH (nicotinamide adenine dinucleotide phosphate) to a final concentration of 0.25 mM with a regenerating system (glucose-6-phosphate and glucose-6-phosphate dehydrogenase) in 25 mM potassium phosphate buffer, pH 7.4, containing 0.1 mM DTT (dithiothreitol), 0.1% Tween-20.4 mM MgCl2 and incubated at 37° C. After 30 minutes of incubation, the reaction is stopped by adding 5 ml of dichloromethane. The organic phase is isolated by centrifugation, evaporation, dissolution in ethanol and transferred to a vial for HPLC studies. A C18 Luna 100 Å 250×4, 6 mm column was used on an Agilent Technologies 1200 series instrument (USA) with ethanol as the mobile phase.
Activity (a) is calculated as the amount of product in nmol per minute per 1 nmol of CYP.
where k is the correction factor (k=1 is used as the molar extinction coefficients of steroid substrates and products similar at a detection wavelength of 254 nm), As is the peak area of the substrate, cs is the concentration of the substrate, Ap is the peak area of the product, ce is the concentration of CYP (cytochrome P450), t is the reaction time.
The level of inhibition of CYP11 B2 activity is expressed as a percentage, where 0% is defined as no inhibition in reactions without test compound and 100% is absolute inhibition by test compound.
By inhibition is commonly meant how much of the control response was suppressed. Take `COc1c(C)cc(S(=O)(=O)n2ccc3c(-c4ccc(C)cn4)cncc32)cc1C` [Compound 1_01, 1-(4-methoxy-3,5-dimethylphenyl)sulfonyl-4-(5-methyl-2-pyridyl)pyrrolo[2,3-c]pyridine]: the inhibition at 2 µM was 50 to 100%.
On to `COc1c(C)cc(S(=O)(=O)n2ccc3c(-c4cnc(C)cn4)cncc32)cc1C` [Compound 1_02, 1-((4-methoxy-3,5-dimethylphenyl)sulfonyl)-4-(5-methylpyrazin-2-yl)-1H-pyrrolo[2,3-c]pyridine], for which the inhibition at 2 µM lay in the range of 50 to 100%.
Regarding `COc1c(C)cc(S(=O)(=O)n2ccc3c(-c4ncc(C)cn4)cncc32)cc1C` [Compound 1_03, 1-((4-methoxy-3,5-dimethylphenyl)sulfonyl)-4-(5-methylpyrimidin-2-yl)-1H-pyrrolo[2,3-c]pyridine], the inhibition at 2 µM fell in the range of 50 to 100%.
In the case of `COc1c(C)cc(S(=O)(=O)n2ccc3c(-c4ccc(C)nn4)cncc32)cc1C` [Compound 1_04, 1-(4-methoxy-3,5-dimethylphenyl)sulfonyl-4-(6-methylpyridazin-3-yl)pyrrolo[2,3-c]pyridine], the inhibition at 2 µM is 50 to 100%.
The result for `COc1c(C)cc(S(=O)(=O)n2ccc3c(-c4ccc(S(C)(=O)=O)cn4)cncc32)cc1C` [Compound 1_05, 1-(4-methoxy-3,5-dimethylphenyl)sulfonyl-4-(5-methylsulfonyl-2-pyridyl)pyrrolo[2,3-c]pyridine] reads 20 to 100%; that for `CC(C)Oc1c(F)cc(S(=O)(=O)n2ccc3c(-c4ccccn4)cncc32)cc1F` [Compound 1_06, 1-((3,5-difluoro-4-isopropoxyphenyl)sulfonyl)-4-(pyridin-2-yl)-1H-pyrrolo[2,3-c]pyridine], 50 to 100%.
Consider `O=S(=O)(c1cc(F)c(OCC2CC2)c(F)c1)n1ccc2c(-c3ccccn3)cncc21` [Compound 1_07, 1-((4-(cyclopropylmethoxy)-3,5-difluorophenyl)sulfonyl)-4-(pyridin-2-yl)-1H-pyrrolo[2,3-c]pyridine], for which the inhibition at 2 µM was in the range of 50 to 100%.
In the case of `O=S(=O)(c1cc(F)c(OCC(F)F)c(F)c1)n1ccc2c(-c3ccccn3)cncc21` [Compound 1_08, 1-((4-(2,2-difluoroethoxy)-3,5-difluorophenyl)sulfonyl)-4-(pyridin-2-yl)-1H-pyrrolo[2,3-c]pyridine], the inhibition at 2 µM lay in the range of 50 to 100%.
Consider `CN(C)c1c(F)cc(S(=O)(=O)n2ccc3c(-c4ccccn4)cncc32)cc1F` [Compound 1_09, 2,6-difluoro-N,N-dimethyl-4-((4-(pyridin-2-yl)-1H-pyrrolo[2,3-c]pyridin-1-yl)sulfonyl)aniline], for which the inhibition at 2 µM is 50 to 100%.
The same measure for `O=S(=O)(c1cc(F)c(N2CCOCC2)c(F)c1)n1ccc2c(-c3ccccn3)cncc21` [Compound 1_10, 4-(2,6-difluoro-4-((4-(pyridin-2-yl)-1H-pyrrolo[2,3-c]pyridin-1-yl)sulfonyl)phenyl)morpholine]: 50 to 100%; for `Nc1c(F)cc(S(=O)(=O)n2ccc3c(-c4ccccn4)cncc32)cc1F` [Compound 1_11, 2,6-difluoro-4-((4-(pyridin-2-yl)-1H-pyrrolo[2,3-c]pyridin-1-yl)sulfonyl)aniline]: 50 to 100%; for `CN1CCN(c2c(F)cc(S(=O)(=O)n3ccc4c(-c5ccccn5)cncc43)cc2F)CC1` [Compound 1_12, 1-((3,5-difluoro-4-(4-methylpiperazin-1-yl)phenyl)sulfonyl)-4-(pyridin-2-yl)-1H-pyrrolo[2,3-c]pyridine]: 50 to 100%.
The result for `O=S(=O)(c1cc(F)c(NC2CC2)c(F)c1)n1ccc2c(-c3ccccn3)cncc21` [Compound 1_13, N-cyclopropyl-2,6-difluoro-4-((4-(pyridin-2-yl)-1H-pyrrolo[2,3-c]pyridin-1-yl)sulfonyl)aniline] reads 50 to 100%; that for `CN(c1c(F)cc(S(=O)(=O)n2ccc3c(-c4ccccn4)cncc32)cc1F)C1CCC1` [Compound 1_14, N-cyclobutyl-2,6-difluoro-N-methyl-4-((4-(pyridin-2-yl)-1H-pyrrolo[2,3-c]pyridin-1-yl)sulfonyl)aniline], 50 to 100%; that for `CN(C)c1c(F)cc(S(=O)(=O)N2CCc3c(-c4ccccn4)cncc32)cc1F` [Compound 1_15, 2,6-difluoro-N,N-dimethyl-4-((4-(pyridin-2-yl)-2,3-dihydro-1H-pyrrolo[2,3-c]pyridin-1-yl)sulfonyl)aniline], 20 to 100%.
The result for `O=S(=O)(c1cc(F)c(O)c(F)c1)N1CCc2c(-c3ccccn3)cncc21` [Compound 1_16, 2,6-difluoro-4-((4-(pyridin-2-yl)-2,3-dehydro-H-pyrrolo[2,3-c]pyridin-1-yl)sulfonyl)phenol] reads 50 to 100%; that for `CN1CCN(c2c(F)cc(S(=O)(=O)N3CCc4c(-c5ccccn5)cncc43)cc2F)CC1` [Compound 1_17, 1-((3,5-difluoro-4-(4-methylpiperazin-1-yl)phenyl)sulfonyl)-4-(pyridin-2-yl)-2,3-dihydro-1H-pyrrolo[2,3-c]pyridine], 50 to 100%.
As to `COc1c(F)cc(S(=O)(=O)n2ccc3c(-c4ccccn4)cncc32)cc1F` [Compound 1_18, 1-((3,5-difluoro-4-methoxyphenyl)sulfonyl)-4-(pyridin-2-yl)-1H-pyrrolo[2,3-c]pyridine], the inhibition at 2 µM was in the range of 50 to 100%.
The result for `CC1CN(c2c(F)cc(S(=O)(=O)n3ccc4c(-c5ccccn5)cncc43)cc2F)C1` [Compound 1_19, 1-((3,5-difluoro-4-(3-methylazetidin-1-yl)phenyl)sulfonyl)-4-(pyridin-2-yl)-1H-pyrrolo[2,3-c]pyridine] reads 50 to 100%; that for `Cc1csc(N(C)c2c(F)cc(S(=O)(=O)n3ccc4c(-c5ccccn5)cncc43)cc2F)n1` [Compound 1_20, N-(2,6-difluoro-4-((4-(pyridin-2-yl)-1H-pyrrolo[2,3-c]pyridin-1-yl)sulfonyl)phenyl)-N,4-dimethylthiazol-2-amine], 50 to 100%; that for `CN1CCC(Nc2c(F)cc(S(=O)(=O)n3ccc4c(-c5ccccn5)cncc43)cc2F)CC1` [Compound 1_21, N-(2,6-difluoro-4-((4-(pyridin-2-yl)-1H-pyrrolo[2,3-c]pyridin-1-yl)sulfonyl)phenyl)-1-methylpiperidin-4-amine], 50 to 100%.
As for `CN(C)CCNc1c(F)cc(S(=O)(=O)n2ccc3c(-c4ccccn4)cncc32)cc1F` [Compound 1_22, N1-(2,6-difluoro-4-((4-(pyridin-2-yl)-1H-pyrrolo[2,3-c]pyridin-1-yl)sulfonyl)phenyl)-N2,N2-dimethylethane-1,2-diamine], the inhibition at 2 µM lay in the range of 50 to 100%.
With `O=S(=O)(c1cc(F)c(N2CCSCC2)c(F)c1)n1ccc2c(-c3ccccn3)cncc21` [Compound 1_23, 4-(2,6-difluoro-4-((4-(pyridin-2-yl)-1H-pyrrolo[2,3-c]pyridin-1-yl)sulfonyl)phenyl)thiomorpholine], the inhibition at 2 µM lay in the range of 50 to 100%.
The result for `CN1CC2CN(c3c(F)cc(S(=O)(=O)n4ccc5c(-c6ccccn6)cncc54)cc3F)CC2C1` (centres unmarked) [Compound 1_24, 1-((3,5-difluoro-4-(5-methylhexahydropyrrolo[3,4-c]pyrrol-2(1H)-yl)phenyl)sulfonyl)-4-(pyridin-2-yl)-1H-pyrrolo [2,3-s]pyridine] reads 20 to 100%; that for `CN1CCC2CN(c3c(F)cc(S(=O)(=O)n4ccc5c(-c6ccccn6)cncc54)cc3F)CC2C1` (centres unmarked) [Compound 1_25, 1-((3,5-difluoro-4-(5-methyloctahydro-2H-pyrrolo[3,4-c]pyridin-2-yl)phenyl)sulfonyl)-4-(pyridin-2-yl)-1H-pyrrolo[2,3-c]pyridine], 50 to 100%.
The same measure for `O=S(=O)(c1cc(F)c(N2CCC3(CCNC3)C2)c(F)c1)n1ccc2c(-c3ccccn3)cncc21` (centres unmarked) [Compound 1_26, 2-(2,6-difluoro-4-((4-(pyridin-2-yl)-1H-pyrrolo[2,3-c]pyridin-1-yl)sulfonyl)phenyl)-2,7-diazaspiro[4.4]nonane]: 50 to 100%.
